Experimental data from PubChem BioAssay AID1963833 (Molecular Pharmacology Branch, DTP, NCI, 2024).
Several values for one entry are separate records, joined by “and”; a condition that tells them apart may be missing. Identical values can stand only once.

System: 883617-216-R-J1-PDC complex spheroid viability
Assay: Anticancer human tumor 883617-216-R-J1-PDC patient-derived bladder carcinoma cell line growth inhibition [POLQ]
Conditions: for viability, T/C: stronger effect = lower value
Description: Multicellular complex tumor spheroid response to Polymerase (POL) inhibitors (novobiocin, ART-558, RP6685) in combination with a variety of drugs and investigational agents in selected tumor cell lines
The POL inhibitors (novobiocin, ART-558, and RP6685) were evaluated both individually and in combination with standard of care and investigational anticancer small molecules within a complex spheroid model of solid tumors. . Complex spheroids include a stromal component modeled by human endothelial cells (HUVEC) and fibroblasts modeled by human mesenchymal stem cells (MSCs). The concentration ranges selected for each drug and investigational agent were based upon clinically achievable concentrations if the clinical Cmax of the agent was known.
Compounds. The drugs and investigational agents: novobiocin (NSC847541), ART-558 (NSC835418), RP-6685 (NSC848927), peposertib (NSC802822), ceralasertib (NSC780249), elimusertib (NSC800525), camonsertib (NSC841442), AZD-1390 (NSC803789), olaparib (NSC753686), talazoparib (NSC767125), rucaparib (NSC756644), sotorasib (NSC818433), MRTX-1133 (NSC836407), SN-38 (NSC673596), topotecan (NSC609699), epotoside (NSC141540), doxorubicin (NSC123127), gemcitabine (NSC613327), 5-fluorouracil (NSC19893), paclitaxel (NSC125973), vemurafenib (NSC761431), MSA-2 (NSC828583), SN-011 (NSC837082), adavosertib (NSC754352), prexasertib (NSC758257), carboplatin (NSC241240) and oxaliplatin (NSC266046), were obtained from the National Cancer Institute (NCI) Developmental Therapeutics Program Chemical Repository (21). The FDA-approved anticancer drug set is available from the Developmental Therapeutics Program at https://dtp.cancer.gov/organization/dscb/obtaining/. […] The stock solutions were prepared in dimethyl sulfoxide (DMSO, Sigma-Aldrich, St. Louis, MO, cat. D2650), except for the platinum compounds which were prepared in saline (Quality Biological, Gaithersburg, MD, cat. 114-055-101), at 800-fold the tested concentration and stored at -70 degrees C prior to their use. All drugs and investigational agents were tested over a range starting from a high concentration at or near the clinical Cmax and decreasing in half-log increments. If the clinical Cmax for an agent had not been determined, the highest concentration tested was 10 microM, except for SN-38, which was tested at a high concentration of 1 microM.
Cell Culture. All cells were maintained in an incubator at 37 degrees C and 5% CO2 with 95% humidity. The PDC lines were cultured according to standard operating procedures established by the NCI PDMR (https://pdmr.cancer.gov). Table 3 of the manuscript, lists the cell lines along with the number of the three cell types plated to form the mct-spheroids and media for tumor cell growth. After thawing, all PDC lines, except 997537-175-T-J1-PDC and 415267-285-R-J2-PDC, were cultured in Matrigel-coated flasks prepared with a working solution of 1X Ham's F-12 nutrient mix, without supplementation (Thermo Fisher Scientific, cat. 11765054), 100 U/mL penicillin-streptomycin (Thermo Fisher Scientific, cat. 15140122), and 2.5% Matrigel (Corning Inc., Corning, NY, cat. 354248) for the first three passages. The two PDC lines 997537-175-T-J1-PDC and 415267-285-R-J2-PDC were cultured on uncoated flasks. The 857933-349-R-J2-PDC line was cultured in 6C/Colon 1B media containing advanced DMEM/F-12 (Thermo Fisher Scientific, cat. 12634028), 10 mM HEPES (Thermo Fisher Scientific, cat. 15630080), 1X GlutaMAX supplement (Thermo Fisher Scientific, cat. 35050061), 0.1 mg/mL primocin (InvivoGen, San Diego, CA, cat. ant-pm-2), 10% defined fetal bovine serum, heat inactivated (HyClone Laboratories Inc., Logan, UT, cat. SH30070.03HI), 50% L-WRN conditioned media (ATCC, cat. CRL-3276), 1.25 mM N-Acetyl-L-cysteine (Sigma-Aldrich, cat. A9165), 10 mM nicotinamide (Sigma-Aldrich, cat. N0636), 1X B-27 supplement (Thermo Fisher Scientific, cat. 17504044), 1X N-2 supplement (Thermo Fisher Scientific, cat. […]

[1] = curve of first compound, second compound 0.0316 µM
[2] = curve of first compound, second compound 0.1 µM
[3] = curve of first compound, second compound 0.316 µM
[4] = curve of first compound, second compound 1 µM
[5] = curve of first compound, second compound 3.16 µM
[6] = curve of first compound, second compound 10 µM
[7] = second compound 0.0316 µM, first compound 0.0316 µM
[8] = second compound 0.0316 µM, first compound 0.1 µM
[9] = second compound 0.0316 µM, first compound 0.316 µM
[10] = second compound 0.0316 µM, first compound 1 µM
[11] = second compound 0.0316 µM, first compound 3.16 µM
[12] = second compound 0.0316 µM, first compound 10 µM
[13] = second compound 0.1 µM, first compound 0.0316 µM
[14] = second compound 0.1 µM, first compound 0.1 µM
[15] = second compound 0.1 µM, first compound 0.316 µM
[16] = second compound 0.1 µM, first compound 1 µM
[17] = second compound 0.1 µM, first compound 3.16 µM
[18] = second compound 0.1 µM, first compound 10 µM
[19] = second compound 0.316 µM, first compound 0.0316 µM
[20] = second compound 0.316 µM, first compound 0.1 µM
[21] = second compound 0.316 µM, first compound 0.316 µM
[22] = second compound 0.316 µM, first compound 1 µM
[23] = second compound 0.316 µM, first compound 3.16 µM
[24] = second compound 0.316 µM, first compound 10 µM
[25] = second compound 1 µM, first compound 0.0316 µM
[26] = second compound 1 µM, first compound 0.1 µM
[27] = second compound 1 µM, first compound 0.316 µM
[28] = second compound 1 µM, first compound 1 µM
[29] = second compound 1 µM, first compound 3.16 µM
[30] = second compound 1 µM, first compound 10 µM
[31] = second compound 3.16 µM, first compound 0.0316 µM
[32] = second compound 3.16 µM, first compound 0.1 µM
[33] = second compound 3.16 µM, first compound 0.316 µM
[34] = second compound 3.16 µM, first compound 1 µM
[35] = second compound 3.16 µM, first compound 3.16 µM
[36] = second compound 3.16 µM, first compound 10 µM
[37] = second compound 10 µM, first compound 0.0316 µM
[38] = second compound 10 µM, first compound 0.1 µM
[39] = second compound 10 µM, first compound 0.316 µM
[40] = second compound 10 µM, first compound 1 µM
[41] = second compound 10 µM, first compound 3.16 µM
[42] = second compound 10 µM, first compound 10 µM
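Also: spheroids exposed to compounds for seven days before readout.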
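For viability, T/C in this document: 100% = DMSO vehicle control viability.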

## CC1COCCN1c1cc(C2(O)CC3CCC(C2)O3)c2cnn(-c3ccn[nH]3)c2n1 (stereo not given) + COC1C(OC(N)=O)C(O)C(Oc2ccc3c(O)c(NC(=O)c4ccc(O)c(CC=C(C)C)c4)c(=O)oc3c2C)OC1(C)C
[1]
  IC50: 102 nM
[2]
  IC50: 170 nM
[3]
  IC50: 135 nM
[4]
  IC50: 90.6 nM
[5]
  IC50: 135 nM
[6]
  IC50: 107 nM
[7]
  viability, T/C: 72.8%
[8]
  viability, T/C: 49.2%
[9]
  viability, T/C: 35.2%
[10]
  viability, T/C: 34.4%
[11]
  viability, T/C: 24.9%
[12]
  viability, T/C: 21.8%
[13]
  viability, T/C: 66.8%
[14]
  viability, T/C: 56.8%
[15]
  viability, T/C: 42.3%
[16]
  viability, T/C: 27.6%
[17]
  viability, T/C: 25%
[18]
  viability, T/C: 21.8%
[19]
  viability, T/C: 68.4%
[20]
  viability, T/C: 53.1%
[21]
  viability, T/C: 40.9%
[22]
  viability, T/C: 27.7%
[23]
  viability, T/C: 25.6%
[24]
  viability, T/C: 21.7%
[25]
  viability, T/C: 73.4%
[26]
  viability, T/C: 45.2%
[27]
  viability, T/C: 37.1%
[28]
  viability, T/C: 30.7%
[29]
  viability, T/C: 25.9%
[30]
  viability, T/C: 22.3%
[31]
  viability, T/C: 68.7%
[32]
  viability, T/C: 52.4%
[33]
  viability, T/C: 40.9%
[34]
  viability, T/C: 32.4%
[35]
  viability, T/C: 27.8%
[36]
  viability, T/C: 21.3%
[37]
  viability, T/C: 58.5%
[38]
  viability, T/C: 52.5%
[39]
  viability, T/C: 42.9%
[40]
  viability, T/C: 31.2%
[41]
  viability, T/C: 29.1%
[42]
  viability, T/C: 23%

## C=CCn1c(=O)c2cnc(Nc3ccc(N4CCN(C)CC4)cc3)nc2n1-c1cccc(C(C)(C)O)n1
Compound 0.00316 µM
  viability, T/C: 97.5% and 107% and 98.8%
Compound 0.01 µM
  viability, T/C: 100% and 96.8% and 90.3%
Compound 0.0316 µM
  viability, T/C: 100% and 108% and 112%
Compound 0.1 µM
  viability, T/C: 107% and 87.8% and 93.7%
Compound 0.316 µM
  viability, T/C: 85.4% and 72.3% and 92.5%
Compound 1 µM
  viability, T/C: 48.6% and 50.2% and 50.6%
Curve of compound
  IC50: 960 nM and > 1000 nM

## COc1cccc(OCCCN)c1-c1cc(Nc2cnc(C#N)cn2)n[nH]1
Compound 0.00316 µM
  viability, T/C: 98.3% and 89.8% and 106%
Compound 0.01 µM
  viability, T/C: 69.9% and 82.7% and 93.2%
Compound 0.0316 µM
  viability, T/C: 52.6% and 55.5% and 49%
Compound 0.1 µM
  viability, T/C: 40.9% and 44.4% and 45.3%
Compound 0.316 µM
  viability, T/C: 34.2% and 34.5% and 41.7%
Compound 1 µM
  viability, T/C: 25% and 30.4% and 35.5%
Curve of compound
  IC50: 40.6 nM and 57 nM and 31.2 nM

## COc1cccc2c1C(=O)c1c(O)c3c(c(O)c1C2=O)CC(O)(C(=O)CO)CC3OC1CC(N)C(O)C(C)O1 (stereo not given) + Cc1cccc(N(C)C(=O)C2C(O)CCN2c2nc(C)cc(C(F)(F)F)c2C#N)c1
[1]
  IC50: 311 nM
[2]
  IC50: 228 nM
[3]
  IC50: 222 nM
[4]
  IC50: 359 nM
[5]
  IC50: 206 nM
[6]
  IC50: 330 nM
[7]
  viability, T/C: 78%
[8]
  viability, T/C: 60.8%
[9]
  viability, T/C: 52.2%
[10]
  viability, T/C: 9.43%
[11]
  viability, T/C: 0.22%
[12]
  viability, T/C: 0.21%
[13]
  viability, T/C: 66.1%
[14]
  viability, T/C: 67.9%
[15]
  viability, T/C: 43.2%
[16]
  viability, T/C: 8.29%
[17]
  viability, T/C: 0.32%
[18]
  viability, T/C: 0.2%
[19]
  viability, T/C: 74.3%
[20]
  viability, T/C: 59.8%
[21]
  viability, T/C: 45.4%
[22]
  viability, T/C: 6.2%
[23]
  viability, T/C: 0.22%
[24]
  viability, T/C: 0.2%
[25]
  viability, T/C: 65.1%
[26]
  viability, T/C: 57.5%
[27]
  viability, T/C: 55.6%
[28]
  viability, T/C: 5.25%
[29]
  viability, T/C: 0.22%
[30]
  viability, T/C: 0.2%
[31]
  viability, T/C: 66.8%
[32]
  viability, T/C: 57.3%
[33]
  viability, T/C: 43.7%
[34]
  viability, T/C: 3.99%
[35]
  viability, T/C: 0.31%
[36]
  viability, T/C: 0.29%
[37]
  viability, T/C: 66%
[38]
  viability, T/C: 58.1%
[39]
  viability, T/C: 51.9%
[40]
  viability, T/C: 1.41%
[41]
  viability, T/C: 0.35%
[42]
  viability, T/C: 0.34%

## CC(C)n1c(=O)n(C)c2cnc3cc(F)c(-c4ccc(OCCCN5CCCCC5)nc4)cc3c21
Compound 0.0316 µM
  viability, T/C: 96% and 105% and 102%
Compound 0.1 µM
  viability, T/C: 90.3% and 101% and 98.8%
Compound 0.316 µM
  viability, T/C: 112% and 103% and 111%
Compound 1 µM
  viability, T/C: 106% and 108% and 94.5%
Compound 3.16 µM
  viability, T/C: 87.5% and 84% and 102%
Compound 10 µM
  viability, T/C: 52.9% and 72% and 69.1%
Curve of compound
  IC50: > 10000 nM

## COC1C(OC(N)=O)C(O)C(Oc2ccc3c(O)c(NC(=O)c4ccc(O)c(CC=C(C)C)c4)c(=O)oc3c2C)OC1(C)C (stereo not given)
Compound 0.0316 µM
  viability, T/C: 98.8% [middle of 13 runs]
Compound 0.1 µM
  viability, T/C: 99.7% [middle of 13 runs]
Compound 1 µM
  viability, T/C: 103% [middle of 13 runs]
Compound 3.16 µM
  viability, T/C: 100% [middle of 12 runs]
Compound alone, run of 01/08/2024
  IC50: > 10000 nM
